According to US20130123460A1, “PEPTIDE FOR IMPROVING BIOSTABILITY OF BIOACTIVE SUBSTANCE, AND BIOACTIVE SUBSTANCE HAVING IMPROVED BIOSTABILITY” (priority 2010, published 2013):
Entries after “also recorded” stand apart in the source; their conditions may differ. Read-outs that look alike come from different tables or passages of the source. Bridges are numbered along the chain shown (N, C = ends). Where no end group is shown, it is not given here.

Tests used:
[1] = Plasma stability of amylin complex (remaining rate in rat plasma); format: in vitro ADME, SD rats; conditions: for remaining at 0.5 h, 0.5 μmol/L / remaining at 2 h, 0.5 μmol/L / remaining at 8 h, 0.5 μmol/L: SD
Method: Evaluation was performed in a manner in which after the treatment of the amylin or amylin peptide complex with plasma for a pre-determined time, an amount of change of the amylin peptide (complex) undecomposed was measured by an HPLC/MS.

[2] = Plasma stability of VIP peptide complex (remaining rate in rat plasma); format: in vitro ADME, SD rats; conditions: VIP complexes, 37° C.; for remaining at 8 h, 0.5 μmol/L / remaining at 48 h, 0.5 μmol/L: SD; for remaining at 8 h, 0.5 μmol/L: read-out: Remaining rate in plasma after 8 hours (%); for remaining at 48 h, 0.5 μmol/L: read-out: Remaining rate in plasma after 48 hours; for Remaining rate in plasma after 8 hours (%) / Remaining rate in plasma after 48 hours: 0.5 μmol/L
Method: The plasma stability was evaluated in vitro, in order to inspect the biostability of the VIP peptide complex.
SD rats were anesthetized with diethyl ether, whole blood was collected, and a plasma fraction was separated therefrom. The VIP or VIP-peptide complex was added to the plasma so that the final concentration thereof was 0.5 μmol/L, and the mixture was incubated at 37° C. A sample was recovered after 0, 8 or 48 hours, and a remaining rate was evaluated by an HPLC/MS measurement of an amount of the VIP or VIP peptide complex.

[3] = target: T1, endogenous VIP receptor (Homo sapiens, UniProt P41587); assay: cAMP productivity in SUP-T1 cells; format: cell-based; conditions: 3-3000 nM, IBMX, 30 minutes
T1 construct: expressing an endogenous VIP receptor; host or cells: SUP-T1 human T-cell line
T1 sequence (P41587 24-438): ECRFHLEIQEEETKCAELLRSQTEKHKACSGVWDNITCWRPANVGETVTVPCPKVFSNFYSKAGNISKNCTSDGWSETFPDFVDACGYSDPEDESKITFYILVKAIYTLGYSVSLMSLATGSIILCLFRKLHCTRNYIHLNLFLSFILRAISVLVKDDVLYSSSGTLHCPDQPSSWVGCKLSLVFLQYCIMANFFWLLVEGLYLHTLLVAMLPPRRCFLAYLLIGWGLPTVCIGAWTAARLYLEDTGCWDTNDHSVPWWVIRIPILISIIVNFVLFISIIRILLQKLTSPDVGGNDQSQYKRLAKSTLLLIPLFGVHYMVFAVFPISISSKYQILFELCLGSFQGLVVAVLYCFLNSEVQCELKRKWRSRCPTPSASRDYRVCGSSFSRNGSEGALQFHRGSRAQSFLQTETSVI
Method: A productivity of cAMP was analyzed in vitro, in order to evaluate the activity intensity of the VIP peptide complexes showing the plasma stability in Experimental Example 4.
An intracellular cAMP productivity was evaluated using SUP-T1 cells which were derived from human T-cell, expressing an endogenous VIP receptor (purchased from ATCC). The SUP-T1 cells which were subjected to suspension culture for 48 or more hours were moved to a tube, and the cells were washed twice with a medium (RPMI-1640). After that, a medium including IBMX (3-isobutyl-1-methylxanthine), which was an inhibitor of a catabolic enzyme of the cAMP, was added thereto, and the mixture was incubated at 37° C. for 15 minutes. After centrifugation, the supernatant was removed, and an IBMX-containing medium including the VIP peptide complex was added thereto. The reaction was performed at 37° C. for 30 minutes. After the reaction, the tube was centrifuged, the supernatant was removed, and the cell lysate was added thereto. The mixture was incubated at 37° C. for 30 minutes to dissolve the cells, and the productivity was evaluated by the measurement of the cAMP. The cAMP measurement was performed using an enzyme-linked immunosorbent assay (ELISA) by chemiluminescence detection.
The activity intensity (%) of the VIP peptide complex was calculated according to the following formula.
Activity Intensity (%)=[{(the maximum amount of the cAMP produced in each VIP peptide complex)/(the maximum amount of the cAMP produced in native VIP)]×100

[4] = target: T2, endogenous GLP-1 receptor (Mus musculus, UniProt O35659); assay: Insulin secretion capacity of GLP-1 peptide complex in MIN 6 cells; format: cell-based; conditions: for Insulin secretion capacity (% of control): 1000 pM, control = native GLP-1 at 1000 pM;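 for all read-outs here: insulin released into the supernatant of MIN 6 cultures quantified by ELISA, absorbance read at 450 nm with 620 nm reference after substrate addition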
T2 construct: expressing an endogenous GLP-1 receptor; endogenous in cells; host or cells: MIN 6 mouse insulinoma cells (obtained from a person)
T2 sequence (O35659 22-463): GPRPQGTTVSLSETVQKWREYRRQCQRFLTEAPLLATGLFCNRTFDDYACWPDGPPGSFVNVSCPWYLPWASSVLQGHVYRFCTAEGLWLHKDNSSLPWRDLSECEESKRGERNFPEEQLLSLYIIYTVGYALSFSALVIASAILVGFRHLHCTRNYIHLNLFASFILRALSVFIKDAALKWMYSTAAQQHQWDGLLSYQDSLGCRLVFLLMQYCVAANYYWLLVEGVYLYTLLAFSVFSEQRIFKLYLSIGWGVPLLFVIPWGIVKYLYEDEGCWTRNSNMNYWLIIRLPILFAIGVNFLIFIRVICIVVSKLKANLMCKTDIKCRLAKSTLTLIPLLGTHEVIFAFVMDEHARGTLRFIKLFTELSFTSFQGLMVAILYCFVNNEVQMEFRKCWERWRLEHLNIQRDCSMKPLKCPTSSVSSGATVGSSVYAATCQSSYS
Method: MIN 6 was seeded on a multi-plate, which was cultivated at 37° C. for 48 hours. After that, the culture was washed twice with a KRH buffer solution including 2 mM glucose solution (including NaCl 119 mM, KCl 4.74 mM, CaCl2 2.54 mM, MgCl2 1.19 mM, KH2PO4 1.19 mM, 10 mM HEPES buffer solution pH7.3, and 0.1% BSA), and then it was incubated at 37° C. for one hour. […] A supernatant thereof was recovered, and an amount of insulin secreted was measured. The measurement of the insulin was performed in an enzyme-linked immunosorbent assay (ELISA), and an absorbance was measured at 450 nm (a sub-wavelength: 620 nm) after the addition of a substrate.
EC50 values thereof were calculated in the same manner as in Part 2, and the influence on the bioactivity caused by the addition of the partial peptide of the GA module were inspected in detail.
The analysis was performed using the following calculation formula.

[5] = Plasma stability of GLP-1 peptide complex (remaining rate in rat plasma, HPLC/MS); format: in vitro ADME, SD rats; conditions: for remaining at 8 h, 0.5 μmol/L / remaining at 48 h, 0.5 μmol/L: SD, rat, plasma
Source text: SD rats were anesthetized with diethyl ether, whole blood was collected and a plasma fraction was separated therefrom.

Row | Molecule | remaining at 8 h, 0.5 μmol/L [2] [%] | remaining at 48 h, 0.5 μmol/L [2] [%] | Remaining rate in plasma after 8 hours (%) [2] | Remaining rate in plasma after 48 hours [2] [%] | Activity Intensity (%), maximum amount of cAMP produced relative to native VIP [3] [%] | Insulin secretion capacity (% of control) ([4]; MIN 6 cells, 15 mM glucose) [%] | remaining at 8 h, 0.5 μmol/L [5] [%] | remaining at 48 h, 0.5 μmol/L [5] [%] | further results
1 | CC[C@H](C)[C@H](NC(=O)[C@H](C)NC(=O)CNC(=O)[C@H](Cc1ccccc1)NC(=O)[C@H](CC(N)=O)NC(=O)[C@H](CC(N)=O)NC(=O)[C@H](CO)NC(=O)[C@H](CO)NC(=O)[C@H](Cc1c[nH]cn1)NC(=O)[C@@H](NC(=O)[C@H](CC(C)C)NC(=O)[C@H](Cc1ccccc1)NC(=O)[C@H](CC(N)=O)NC(=O)[C@H](C)NC(=O)[C@H](CC(C)C)NC(=O)[C@H](CCCNC(=N)N)NC(=O)[C@H](CCC(N)=O)NC(=O)[C@@H](NC(=O)[C@H](C)NC(=O)[C@@H]1CSSC[C@H](NC(=O)[C@@H](N)CCCCN)C(=O)N[C@@H](CC(N)=O)C(=O)N[C@@H]([C@@H](C)O)C(=O)N[C@@H](C)C(=O)N[C@@H]([C@@H](C)O)C(=O)N1)[C@@H](C)O)C(C)C)C(=O)N[C@@H](CC(C)C)C(=O)N[C@@H](CO)C(=O)N[C@@H](CO)C(=O)N[C@H](C(=O)N[C@@H](CC(N)=O)C(=O)N[C@H](C(=O)NCC(=O)N[C@@H](CO)C(=O)N[C@@H](CC(N)=O)C(=O)N[C@H](C(=O)N[C@@H](Cc1ccc(O)cc1)C(N)=O)[C@@H](C)O)C(C)C)[C@@H](C)O [Comparative Example 16, Amylin(1-37)-NH2] | – | – | – | – | – | – | – | – | remaining at 0.5 h, 0.5 μmol/L ([1]; amylin, rat plasma, 0.5 μmol/L, 37° C., 0.5 hour, read-out: Remaining rate in plasma after 0.5 hour (%)): 43%; remaining at 2 h, 0.5 μmol/L ([1]; amylin, rat plasma, 0.5 μmol/L, 37° C., 2 hours, read-out: Remaining rate in plasma after 2 hours (%)): 15%; remaining at 8 h, 0.5 μmol/L ([1]; amylin, rat plasma, 0.5 μmol/L, 37° C., 8 hours, read-out: Remaining rate in plasma after 8 hours (%)): 0%; Remaining rate in plasma after 2 hours (%) ([1]; amylin, rat plasma, 0.5 μmol/L, 37° C., 2 hours): 15%
2 | HSDAVFTDNYTRLRKQMAVKKYLNSILNAKTVEGVKALIDEILAA-NH2 [Example 27, VIP(1-28)-GAm(28-44)-NH2] | 109 | 35 | not totally decomposed | 35 | 67 | – | – | – | –
3 | CC[C@H](C)[C@H](NC(=O)[C@H](CCC(=O)O)NC(=O)[C@H](CC(=O)O)NC(=O)[C@@H](NC(=O)[C@H](CC(C)C)NC(=O)[C@H](CC(N)=O)NC(=O)[C@H](CC(C)C)NC(=O)[C@@H](NC(=O)[C@H](CO)NC(=O)[C@H](CC(N)=O)NC(=O)[C@H](CC(C)C)NC(=O)[C@H](Cc1ccc(O)cc1)NC(=O)[C@H](CCCCN)NC(=O)[C@H](CCCCN)NC(=O)[C@@H](NC(=O)[C@H](C)NC(=O)[C@H](CCSC)NC(=O)[C@H](CCC(N)=O)NC(=O)[C@H](CCCCN)NC(=O)[C@H](CCCNC(=N)N)NC(=O)[C@H](CC(C)C)NC(=O)[C@H](CCCNC(=N)N)NC(=O)[C@@H](NC(=O)[C@H](Cc1ccc(O)cc1)NC(=O)[C@H](CC(N)=O)NC(=O)[C@H](CC(=O)O)NC(=O)[C@@H](NC(=O)[C@H](Cc1ccccc1)NC(=O)[C@@H](NC(=O)[C@H](C)NC(=O)[C@H](CC(=O)O)NC(=O)[C@H](CO)NC(=O)[C@@H](N)Cc1c[nH]cn1)C(C)C)[C@@H](C)O)[C@@H](C)O)C(C)C)[C@@H](C)CC)[C@@H](C)CC)C(=O)N[C@@H](CC(C)C)C(=O)N[C@@H](C)C(=O)N[C@@H](C)C(N)=O [Example 25, VIP(1-28)-GAm(37-44)-NH2] | 118 | 118 | not totally decomposed | 118 | 81 | – | – | – | –
4 | HSEGTFTSDVSSYLEGQAAKEFIAWLVKGTVEGVKALIDEIL-NH2 [Example 12, [Ser8]-GLP-1(7-35)-GAm(30-42)-NH2] | – | – | – | – | – | 85 | 105 | 116 | –
5 | HAEGTFTSDVSSYLEGQAAKEFIAWLVKGGPKALIDEILAA-NH2 [Example 21, GLP-1(7-35)-Gly-Pro-GAm(35-44)-NH2] | – | – | – | – | – | 103 | 86 | 53 | –
6 | HSEGTFTSDVSSYLEGQAAKEFIAWLVKGNAKTVEGVKALIDEILAALP-NH2 [Example 15, [Ser8]-GLP-1(7-35)-GAm(27-46)-NH2] | – | – | – | – | – | 106 | 111 | 93 | –
7 | [Ser8]-GLP-1(7-35)-GAm(1-46)-NH2 [Comparative Example 4, reference compound] | – | – | – | – | – | 18 | – | – | EC50 ([4]; MIN 6 cells, 15 mM glucose, concentration for 50% of maximum activity of native GLP-1 at 1000 pM, read-out: EC50 value (nM), insulin secretion capacity): > 1 nM; Insulin secretion capacity (activity) compared with native GLP-1, in words ([4]; MIN 6 cells, 30, 100, 300 or 1000 pM (FIG. 2, FIG. 3)): remarkably impaired; also recorded: remarkably decreased; Remaining rate in plasma after 48 hours (%) ([5]; rat plasma, 0.5 μmol/L, 37° C., 48 hours, relative to 0 hour = 100%): 105%
8 | CC[C@H](C)[C@H](NC(=O)[C@H](CO)NC(=O)[C@H](CC(N)=O)NC(=O)[C@H](CC(C)C)NC(=O)[C@H](Cc1ccc(O)cc1)NC(=O)[C@H](CCCCN)NC(=O)[C@H](CCCCN)NC(=O)[C@@H](NC(=O)[C@H](C)NC(=O)[C@H](CCSC)NC(=O)[C@H](CCC(N)=O)NC(=O)[C@H](CCCCN)NC(=O)[C@H](CCCNC(=N)N)NC(=O)[C@H](CC(C)C)NC(=O)[C@H](CCCNC(=N)N)NC(=O)[C@@H](NC(=O)[C@H](Cc1ccc(O)cc1)NC(=O)[C@H](CC(N)=O)NC(=O)[C@H](CC(=O)O)NC(=O)[C@@H](NC(=O)[C@H](Cc1ccccc1)NC(=O)[C@@H](NC(=O)[C@H](C)NC(=O)[C@H](CC(=O)O)NC(=O)[C@H](CO)NC(=O)[C@@H](N)Cc1c[nH]cn1)C(C)C)[C@@H](C)O)[C@@H](C)O)C(C)C)C(=O)N[C@@H](CC(C)C)C(=O)N[C@@H](CC(N)=O)C(N)=O [Comparative Example 14, VIP(1-28)-NH2, reference compound] | 0 | 0 | completely decomposed | – | 100 | – | – | – | –
9 | HSDAVFTDNYTRLRKQMAVKKYLNSILNEGVKALIDEILAA-NH2 [Example 26, VIP(1-28)-GAm(32-44)-NH2] | 99 | 47 | not totally decomposed | 47 | 85 | – | – | – | –
10 | AKTVEGVKALIDEILAAKCNTATCATQRLANFLVHSSNNFGAILSSTNVGSNTY-NH2 (disulfide 19-24) [Example 30, GAm(28-44)-Amylin(1-37)-NH2] | – | – | – | – | – | – | – | – | remaining at 0.5 h, 0.5 μmol/L ([1]; rat, plasma): 88%; remaining at 2 h, 0.5 μmol/L ([1]; rat, plasma): 67%; remaining at 8 h, 0.5 μmol/L ([1]; rat, plasma): 9%
